Consider six molecules from article PMC6943638, “Lectin PLL3, a Novel Monomeric Member of the Seven-Bladed β-Propeller Lectin Family” (Molecules, 2019).

Where two headings read alike, the source gives them in different places.

The term IC50 denotes the concentration needed to halve the response being measured.

Assay [1] relates to PLL3. Description: Surface plasmon resonance, apparent KD on immobilized glycans. Conditions: PLL3 compared with PLL2 and PHL of ref 17. It counts as binding, Photorhabdus laumondii subsp. laumondii. As for the experimental part: (§1) SPR experiments were performed in a BIAcore T200 instrument (GE Healthcare, UK) using a four-channel sensor chip CM5 with a carboxymethyldextran surface layer (GE Healthcare, UK). Saccharides were immobilized on the chip surface using the procedure as described elsewhere. Immobilization was performed in the HBS buffer (10 mM HEPES, 150 mM NaCl, 0.05% Tween 20, pH 7.5) at a flow rate of 10 μL min^−1. For OMeDis immobilization, the surface of the channel was activated with N-hydroxysuccinimide/N-ethyl-N-(3-dimethylaminopropyl)carbodiimide solution (NHS/EDC) and subsequently OMeDis covalently modified by linker (-O-(p-C6H4)-OCH2CH2NH2) in HBS was injected. The final response of immobilized OMeDis was 136 RU. Non-reacted groups were blocked by 1 M ethanolamine/HCl (pH 8.5). A corresponding blank channel was prepared the same way, omitting the ligand injection. […] Biotinylated α-L-fucoside was injected onto this channel to the final response of 63 RU. A corresponding blank channel was prepared the same way without the injection of biotinylated fucoside.
(§2) Between individual injections, the channels were regenerated by 50 mM NaOH for 30 s. The experiment was run at a flow rate of 30 μL min^−1 and a contact time of 120 s. The concentration of PLL3 ranged from 100 μM to 0.195 μM. An apparent KD was calculated in BIAevaluation software using the steady-state approach.
Background: SPR reads the build-up and loss of mass on a sensor chip optically.

In assay [2] the target is T1, PLL3 (Photorhabdus laumondii subsp. laumondii, UniProt Q7N8I7). The assay is described as above. The following applies: SPR, immobilized glycan, PLL3 100 to 0.195 μM, steady-state. It counts as binding. How it is done: as §1, §2
T1 sequence (Q7N8I7 entry or part of it): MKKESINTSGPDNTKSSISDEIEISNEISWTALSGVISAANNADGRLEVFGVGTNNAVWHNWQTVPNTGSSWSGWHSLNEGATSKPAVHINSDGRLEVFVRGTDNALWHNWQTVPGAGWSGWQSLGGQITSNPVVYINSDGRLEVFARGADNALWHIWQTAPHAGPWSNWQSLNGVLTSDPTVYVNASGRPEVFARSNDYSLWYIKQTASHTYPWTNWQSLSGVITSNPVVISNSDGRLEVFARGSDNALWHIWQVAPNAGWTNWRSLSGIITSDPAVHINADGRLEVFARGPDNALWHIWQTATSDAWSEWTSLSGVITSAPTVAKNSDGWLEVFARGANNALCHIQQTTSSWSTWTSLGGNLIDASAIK
For assay [3], the target named is T1, PLL3. Description: SPR inhibition test on immobilized OMeDis. It counts as binding. As for the experimental part:
as §1
SPR inhibition tests were carried out on a channel with immobilized OMeDis using the same buffer and flow rate values as those for the binding studies. The final concentration of the lectin was 20 μM. PLL3 was mixed with serially diluted saccharides (50–0.05 mM for L-fucose; 12.5–0.013 mM for αMeFuc; 200–0.2 mM for 3-O-methyl-D-glucose; and 400–0.4 mM for D-glucose and D-galactose) and injected onto the chip. The lectin sample without ligand was used as a control with 0% inhibition effect. The response of blank channel as well as the response of corresponding saccharides were subtracted from the response of lectin bound to the OMeDis surface at equilibrium. A final response was plotted against the concentration of inhibitor in order to determine IC50 (concentration of inhibitor resulting in 50% inhibition of binding).

Assay [4] has as its target T1, PLL3. Description: Hemagglutination inhibition assay (PLL3 with erythrocytes of blood group O). Type of assay: cell-based. Conditions: PLL3 50 μM; for inhibition of hemagglutination: blood group O erythrocytes, saccharide 100 to 0.1 mM; for minimal inhibitory concentration (MIC) of hemagglutination: erythrocytes of blood group O 10% (v/v). How it is done: For the hemagglutination inhibition assay, the PLL3 was mixed with serially diluted saccharides (L-fucose, αMeFuc, D-galactose, D-glucose, and 3-O-methyl-D-glucose) dissolved in PBS buffer, and mixtures were incubated for 15 min at room temperature. Subsequently, erythrocytes of blood group O were added into the mixture with following incubation for 15 min. The final concentration was 50 μM for the PLL3 and 10% (v/v) for erythrocytes. Concentrations of L-fucose and αMeFuc ranged from 50 to 0.05 mM. Concentrations of D-galactose, D-glucose, and 3-O-methyl-D-glucose ranged from 100 to 0.1 mM. Each sample was observed under the optical microscope (Olympus IX81 with camera DP72; 200x magnification; SW CellSens Dimension, Olympus corporation, Tokyo, Japan).

The target of assay [5] is T1, PLL3. Description: Isothermal titration calorimetry (ITC). Type of assay: binding. As for the experimental part: ITC experiments were carried out using an AutoITC200 calorimeter (Malvern, UK) at 25 °C. The purified lectin was dialyzed against 20 mM Tris/HCl, 150 mM NaCl, pH 7.5 buffer before measurements. Individual ligands (L-fucose, αMeFuc, D-galactose, D-glucose, 3-O-methyl-D-glucose, and decavalent fucosylated glycoclusters 4a and 4b) were dissolved in the same buffer. PLL3 (100 μM) in the cell was titrated by the successive addition (2.0 μL) of the ligand in the syringe (20 mM for monosaccharides, 1 mM for multivalent fucosides). Experiments with monosaccharides were performed at stirring 750 rpm with a reference power of 10 μcal s^−1. Experiments with multivalent fucosides were performed at stirring 500 rpm with a reference power of 6 μcal s^−1. Titrations were carried out in three independent measurements for each ligand. Blank measurements were subtracted from collected data. For multivalent fucosides, two blank measurements were performed: titration of the buffer into the cell with PLL3 and titration of the buffer into the buffer. For monosaccharides, the additional blank measurement, the titration of a given ligand into the cell with buffer, was performed. The data were evaluated in software MicroCal PEAQ-ITC Analysis Software (Malvern, UK) by using the global fit method. Integrated heat effects were analyzed by nonlinear regression.
(In general: ITC needs no label: the signal is the heat of the interaction.)

Assay [6] addresses T1, PLL3. In words: Glycan array screening with DyLight 488-labeled PLL3. It counts as binding. Conditions: PLL3 200 μg mL^-1, hexaplicates. The source says:
Purified PLL3 protein was labeled with DyLight 488 NHS Ester (Thermo Scientific, Rockford, MI, USA) according to the manual instructions of the manufacturer. The unbound dye was removed from the solution using the Zeba Spin Desalting Column (Thermo scientific). The labeled lectin was used for glycan array screening using a glycan microarray chip (Semiotik, Moscow, Russia; chip format OSPS280715; slide number 10085636) containing over 600 mammalian and bacterial glycans (all in hexaplicates). The glycan microarray chip was incubated in 1.0 mL of PBS buffer supplemented with 0.1% (v/v) Tween 20 and placed in a humid chamber for 15 min (37 °C, 40 rpm). Then, the buffer was replaced by 0.5 mL PLL3 (200 μg mL^−1) diluted in PBS buffer with 0.1% Tween 20 and 1% (w/v) bovine serum albumin (Serva, Germany). After incubation (90 min, 37 °C, 40 rpm), the chip was washed by decreasing concentrations of PBS with 0.1% Tween 20, followed by multiple immersions in ultrapure water. Subsequently, the chip was dried by air blow. Fluorescence was read with a scanner InnoScan 1100 AL (Innopsys, Carbonne, France) with a 488 nm laser at 20 °C. The data were analyzed with the software Mapix 8.2.2 and an online glycan chip converter (Semiotik, https://rakitko.shinyapps.io/semiotik). The relative fluorescent response of PLL3 binding was calculated from hexaplicates of each glycan immobilized onto the chip. Only glycans with a response three or more times higher than trehalose and concurrently with a signal-to-noise ratio higher than two were considered as significant binders.

[7] abbreviates: stoichiometry fixed to 3, 25 °C, read-out: KD.
[8] abbreviates: stoichiometry fixed to 4, 25 °C, read-out: KD.
Setting [9] is: stoichiometry fixed to 5, 25 °C, read-out: KD.
The mark [10] stands for this setting: stoichiometry fixed to 6, 25 °C, read-out: KD.
The mark [11] stands for this setting: stoichiometry fixed to 7, 25 °C, read-out: KD.

As to “3,6-O-Me2-Glcβ1-4(2,3-O-Me2)Rhaα [OMeDis]”, in assay [1], the “interaction with immobilized OMeDis, fold weaker than for PLL2 and PHL” value is given as 10^5 fold. Besides, the Kd in assay [2] was determined as 0.607 ± 0.046 mM.
As to `CO[C@@H]([C@H](O)[C@H](O)CO)[C@@H](O)C=O` [3-O-methyl-D-glucose], in assay [3], the midpoint of inhibition, the IC50, lay at 26.4 ± 2.84 mM. In addition, the inhibition of hemagglutination entry in assay [4] is “did not inhibit hemagglutination”. Moreover, the Kd in assay [5] (setting [7]) was 11.3 ± 1.55 mM; in assay [5] (setting [8]) it was 11.1 ± 1.5 mM; in assay [5] (setting [9]), 10.9 ± 1.5 mM; in assay [5] (setting [10]), 10.7 ± 1.5 mM; in assay [5] (setting [11]), 10.4 ± 1.45 mM; in assay [5] (text summary over stoichiometry fixed 3 to 7, read-out: KD values) it was over 10.4 mM.
Take `OC[C@H]1OC(O)[C@H](O)[C@@H](O)[C@@H]1O` (stereo partly drawn) [D-glucose]: the inhibitory effect result in assay [3] (PLL3 20 μM, immobilized OMeDis, highest concentration used 400 mM) is on record as “did not exhibit any inhibitory effect”. Besides, in assay [4], the inhibition of hemagglutination result is on record as “did not inhibit hemagglutination”. In addition, the Kd is 3.7 ± 0.08 mM in assay [5] (setting [7]); 3.6 ± 0.08 mM in assay [5] (setting [8]); 3.4 ± 0.08 mM in assay [5] (setting [9]); 3.3 ± 0.07 mM in assay [5] (setting [10]); 3.1 ± 0.07 mM in assay [5] (setting [11]).
In the case of `C[C@H](O)[C@@H](O)[C@@H](O)[C@H](O)C=O` [L-fucose], inhibition in assay [3] was half-maximal at 2.51 ± 0.09 mM (IC50). Further, in assay [4], the “minimal inhibitory concentration (MIC) of hemagglutination” value was determined as 1560 µM. Further, the Kd was 3.4 ± 0.12 mM in assay [5] (setting [7]); 3.3 ± 0.12 mM in assay [5] (setting [8]); 3.2 ± 0.11 mM in assay [5] (setting [9]); 3.1 ± 0.1 mM in assay [5] (setting [10]); 3 ± 0.09 mM in assay [5] (setting [11]).
Regarding `CO[C@@H]1O[C@@H](C)[C@@H](O)[C@@H](O)[C@@H]1O` [methyl α-L-fucopyranoside], in assay [3] (inhibition of interaction between PLL3 (20 μM) and immobilized OMeDis, read-out: IC50), the IC50 was 1.04 ± 0.05 mM. The “minimal inhibitory concentration (MIC) of hemagglutination” value in assay [4] stood at 780 µM. Besides, the Kd in assay [5] (setting [7]) came to 0.7 ± 0.02 mM; in assay [5] (setting [8]) it was 0.7 ± 0.03 mM; in assay [5] (setting [9]), 0.6 ± 0.03 mM; in assay [5] (setting [10]), 0.6 ± 0.03 mM; in assay [5] (setting [11]), 0.6 ± 0.03 mM.
As to α-L-fucoside, the “glycan array response relative to trehalose (negative control)” value in assay [6] is about 20 fold. In addition, in assay [2], the Kd was 0.322 ± 0.086 mM.
